Values after ≈ are worked out from the molar mass of the structure shown.
Assays:
MDA-MB-231 = experiment: Inhibition of cell migration in human MDA-MB-231 cells; assay type: functional, cell-based
Escherichia coli [1] = experiment: Antibacterial activity against tetracycline resistant Escherichia coli; assay type: functional
Escherichia coli [2] = experiment: Antibacterial activity against tetracycline resistant Escherichia coli 1-849; assay type: functional

| Structure (SMILES) | MIC (Escherichia coli [1]) [µM] | other results |
| --- | --- | --- |
| CCCCCCCCCCCCCC(=O)NCCNC(=O)C(C)(C)C(=O)NCCO[C@@H]1O[C@H](COC(C)=O)[C@@H](O[C@@H]2O[C@H](COC(C)=O)[C@H](OC(C)=O)[C@H](OC(C)=O)[C@H]2OC(C)=O)[C@H](OC(C)=O)[C@H]1OC(C)=O |  | IC50 (MDA-MB-231): > 50 µM |
| NC[C@@H]1O[C@H](O[C@H]2[C@@H](O)[C@H](O[C@@H]3[C@@H](O)[C@H](N)C[C@H](N)[C@H]3O[C@H]3O[C@H](CN)[C@@H](O)[C@H](O)[C@H]3N)O[C@@H]2CO)[C@H](N)[C@@H](O)[C@@H]1O [FRAMYCETIN] | 2 (≈ 1.23 µg/mL) |  |
| CON(CC(=O)Nc1ccc2c(c1O)C(=O)C1=C(O)[C@]3(O)C(=O)C(C(N)=O)=C(O)[C@@H](N(C)C)[C@@H]3[C@@H](O)[C@@H]1[C@H]2C)[C@H]1O[C@H](CO)[C@@H](O)[C@H](O)[C@H]1N |  | MIC (Escherichia coli [2]): 4 µg/mL (≈ 5.65 µM) |
| C[C@H]1O[C@@H](O[C@@H]2[C@@H](O)[C@H](N)C[C@H](N)[C@H]2O[C@H]2O[C@H](CN)[C@@H](O)[C@H](O)[C@H]2N)[C@H](O)[C@@H](O)[C@H]1N | 9 (≈ 4.21 µg/mL) |  |
| C[C@H]1O[C@@H](O[C@@H]2[C@@H](O)[C@H](N)C[C@H](N)[C@H]2O[C@H]2O[C@H](CN)[C@@H](O)[C@H](O)[C@H]2N)[C@H](O)[C@@H](O)[C@@H]1N | 9 (≈ 4.21 µg/mL) |  |

Reference: ChEMBL document CHEMBL5241060, “Glycorandomization: A promising diversification strategy for the drug development” (Eur J Med Chem, 2021)
